The test system of data set [1] is A549 and H1975 cells. Kind of data set: Apoptosis assay, co-treatment with Proscillaridin A. It counts as cell-based. The method, then: (§1) A549, H1975 and HCC827 cells (1×10^5 cells /well) were seeded in a 6 -well plate for 24 h, and treated with the indicated concentrations of Proscillaridin A for an additional 24 h at 37° C. After indicated hours, the cells were washed by ice-cold 1×PBS once and harvested by trypsination. Then cell were centrifuged, collected and resuspended in ice-cold 1×PBS. After removing the supernatants, cell pellets were re-suspended in 100 μL 1× Annexin-binding buffer. The cells were then double-stained with Annexin-V FITC and PI (100 μg/mL) of 2 μL respectively for 15 min at room temperature in dark. After that, 300 μL 1× Annexin-binding buffer was added. Apoptotic cells were quantitatively counted by a BD Aria III Flow Cytometer (BD Biosciences, San Jose, Calif., USA).

For data set [2], the system named is A549 and H1975 cells. The data set is described as follows: Measurement of intracellular calcium (Fluo-3). It counts as cell-based. Particulars: A549 and H1975, after 6 h. The method, then: Changes in intracellular free calcium were measured by a fluorescent dye, Fluo-3 as previously described. Briefly, A549 and H1975 cells were washed twice with culture media after Proscillaridin A treatment (6.25-25 nM) for 6 hours. Then cell suspensions were incubated with 5 μM Fluo-3 at 37° C. for 30 min. After the cells were washed twice with HBSS, the re-suspended cell samples were then subjected to FACS analysis. At least 10,000 events were analyzed.
A general note: A change in cytosolic calcium serves as a functional read-out for many receptors and channels.

A further data set has as its system AMPK phosphorylation. The data set is described as follows: Western blot. It counts as cell-based. The settings on record: FIG. 8A. The procedure:
(§2) After incubation A549, H1975 and HCC827 cells with Proscillaridin A for 18 hours, cells were harvested and washed with cold 1× PBS. Then, cells were lysed with ice-cold RIPA lysis buffer with protease and phosphatase inhibitors added to extract the cell protein extraction. The supernatants were collected by centrifugation at 12,000 g, for 5 min. The quantitation of total protein extraction was measured by Bio-Rad DCTM protein assay kit (Bio-Rad, Philadelphia, Pa., USA). Then 35 μg of protein were loaded and electrophoretically separated on 8% SDS-PAGE gel and then transferred to Nitrocellulose (NC) membrane.
(§3) Membranes were blocked with 5% non-fat milk and […] containing 0.1% Tween-20 (TBST) for 1 h at room temperature. After 1 h, membranes were incubated with primary antibodies (1:1000 dilution) against β-actin, GAPDH, total/phosphor-EGFR, total/phosphor-AKT, total/phosphor-JNK, total/phosphor-AMPK, total/phosphor-ACC, phosphor-mTOR, IKK-α, Iκ-Bα, phosphor-NFκB-P65, Caspase-9, Caspase-7, BAX and Bcl-2 at 4° C. with gently shaking overnight. Membranes were washed with TBST for 3 times (5 min/time), and incubated with secondary fluorescent antibody (1:10000 dilutions) for 1 h at room temperature. Rewashing with TBST for 3 times (15 min/time), the stripes were visualized by LI-COR Odessy scanner (Belfast, Me., USA).

For data set [3], the system named is acetyl-CoA carboxylase (ACC) phosphorylation. The data set is described as follows: Western blot. It is filed as cell-based. Particulars: FIG. 8A. The method, then:
as §2, §3

The next data set deals with mTOR phosphorylation. The data set is described as follows: Western blot. Particulars: FIG. 8A. It is filed as cell-based. The procedure: as §2, §3
For orientation: Immunoblotting shows a protein as a band on a membrane.

In another data set the test system is JNK phosphorylation. Kind of data set: Western blot. Particulars: FIG. 8A. It counts as cell-based. The method, then: as §2, §3
The test system of the next data set is NF-κB pathway. Kind of data set: Western blot. The settings on record: dose-dependent. It is filed as cell-based. The procedure:
as §2, §3

In another data set the test system is DR4 expression. Kind of data set: Regular and quantitative RT-PCR. Particulars: 12 h treatment. It is filed as cell-based. The method, then:
Cells were incubated with Proscillaridin A for 12 hours. Total RNA was then extracted from treated cells using a TRIzol reagent (Invitrogen, Carlsbad, Calif., USA) following the manufacturer's instructions and was used to prepare cDNA. Quantitative real-time PCR was performed with High-productivity Real-Time quantitative PCR ViiA™7 (Life Technologies).
The glyceraldehyde […] dehydrogenase (GAPDH) gene was used as the reference gene. All data were means of fold change of triplicate analysis and normalized with those of GAPDH.

Another data set has as its system H2228 cells. The data set is described as follows: MTT cytotoxicity assay. It counts as cell-based. The settings on record: H2228, EML4-ALK, 24 h. The method, then: (§4) Cells were seeded in a 96-well microplate with 3000-5000 cells/well confluence, and put into the incubator overnight for cells adhesion. Different concentrations of drug Proscillaridin A were added with Dimethyl sulfoxide (DMSO) as vehicle control. The microplates were incubated for further 24 h. Each dosage was repeated in triplicate. 10 μL of MTT (5 mg/mL) solution was added to each well. The plate was placed back into the incubator for 4 h. After that, 100 μL of resolved solution (10% SDS and 0.1 mM HCL) was added to each well.
(§5) Before dissolving the formazan crystals, the microplate was put back into the incubator for another 4 h. The absorbance of the plate was measured at 570 nm with reference 650 nm by a microplate reader (Tecan, Morrisville, N.C., USA). Cell viability was calculated by percentages of the absorbance of the treatment group divided by the absorbance of untreated group. At least three independent experiments were performed for data analysis and presentation.
(Formazan colour is commonly taken as a measure of viable cells.)

The subject of data set [4] is CCD19-LU normal lung fibroblast cell line. Kind of data set: MTT cytotoxicity assay. It counts as cell-based. The procedure:
as §4, §5

The test system of data set [5] is A549 cells. Kind of data set: MTT cytotoxicity assay. It is filed as cell-based. Particulars: A549, EGFR wild type, 24 h. The procedure:
as §4, §5

The next data set concerns HCC78 cells. The data set is described as follows: MTT cytotoxicity assay. It counts as cell-based. The settings on record: HCC78, SLC3482-ROS, 24 h. The procedure:
as §4, §5

Data set [6] has as its system H1975 cells. The data set is described as follows: MTT cytotoxicity assay. It counts as cell-based. The settings on record: H1975, EGFR double mutant, 24 h. The procedure: as §4, §5
Another data set deals with H358 cells. Kind of data set: MTT cytotoxicity assay. It counts as cell-based. The settings on record: H358, KRAS, 24 h. The method, then:
as §4, §5

Data set [7] relates to HCC827 cells. Kind of data set: MTT cytotoxicity assay. It is filed as cell-based. Particulars: HCC827, EGFR exon 19 deletion, 24 h. The method, then: as §4, §5
The subject of data set [8] is A549 cells. The data set is described as follows: Apoptosis assay (Annexin-V/PI flow cytometry). It is filed as cell-based. The procedure: as §1
Data set [9] concerns H1975 cells. The data set is described as follows: Apoptosis assay (Annexin-V/PI flow cytometry). It counts as cell-based. The procedure: as §1
Data set [10] deals with HCC827 cells. Kind of data set: Apoptosis assay (Annexin-V/PI flow cytometry). The settings on record: HCC827, 50 nM, 24 h. It is filed as cell-based. The procedure:
as §1

Data set [11] deals with A549, H1975 and HCC827 cells. The data set is described as follows: Colony-formation assay. It is filed as cell-based. Particulars: all three cell lines. The procedure: Colony-forming assay was performed as previously described. Briefly, About 300 cells were plated into every well of 6 -well plate with 2 ml of culture medium and grown at 37° C. with 5% CO2. After 48 h culture for cell adherence to the plate, rinsed with fresh medium, Proscillaridin A (with indicated different dosages) was added to the medium. 48 h later, the cells were washed twice with PBS and then incubated in drug-free medium. The medium was changed every 5 days. After culturing for additional 10 to 14 days, the medium was discarded and each dish was washed twice with PBS carefully. The cells were fixed with 3.7% Paraformaldehyde for 20 min and 0.2% crystal violet solution in 10% ethanol for 10 min. Excess stain was removed by washing repeatedly with PBS. All the procedures were done at room temperature. The plates can be stored at room temperature or at +4° C. for several months without any visible fading of the dye.

In the next data set the target is Na^+/K^+ ATPase. The data set is described as follows: Na^+/K^+ ATPase enzyme activity assay. It is filed as biochemical. The settings on record: in vitro, enzyme from porcine cerebral cortex. The procedure: The enzymatic activity of Na^+/K^+ ATPase (purchased from Sigma as lyophilized powder from porcine cerebral cortex) was measured by colorimetric quantification of P, released during ATP hydrolysis. A previously published procedure was adapted with some modifications. Begin with incubating 10 μl of Na^+/K^+ ATPase (600 units/m1) with 2.5 μl of KCl/NaCl solution (45 mM KCl and 2 M NaCl) at 37° C. for 30 min with either 5 μl of DMSO (control) or 5 μl of P.A (in different indicated concentrations) in 67.5 μl of buffer (24 mM Tric HCl buffer with 0.68 mM ethylenediaminetetraacetic acid and 6.0 mM magnesium chloride, pH 7.8). ATP (5 μl of 80 mM solution) was then added, and the reaction mixture was incubated again at 37° C. for 15 min. Trichloroacetic acid (30 μl of 100% w/v) was then added to the reaction mixture followed by centrifugation for 5 min. Supernatant (50 μl aliquot) was transferred to a 96 well plated containing 100 μl of Taussky-Shorr reagent. The absorbance at 660 nm was read after incubation at RT for 5 min.

For data set [12], the system named is PARP, Caspase-7, Caspase-9, AKT, BAX, Bcl-2. The data set is described as follows: Western blot of apoptosis-related proteins. It is filed as cell-based. Particulars: A549, H1975, HCC827. The procedure: as §2, §3
Data set [13] has as its system EGFR phosphorylation of tyrosine residue 1173 in H1975. Kind of data set: Western blot of EGFR activation. It counts as cell-based. Particulars: H1975, 18 hours. The procedure: as §2, §3
Data set [14] has as its system EGFR phosphorylation of tyrosine residue 1173 in HCC827. The data set is described as follows: Western blot of EGFR activation. It is filed as cell-based. The settings on record: HCC827, 18 hours. The procedure: as §2, §3

The term CC50 denotes the concentration giving 50% cytotoxicity. As usually defined, the IC50 is the point on the concentration scale where inhibition reaches its midpoint. Low readings indicate higher potency, high ones lower potency.

`CC(=O)OCOC(=O)CN(CC(=O)OCOC(C)=O)c1ccccc1OCCOc1ccccc1N(CC(=O)OCOC(C)=O)CC(=O)OCOC(C)=O` [BAPTA/AM]: the “apoptotic cells after co-treatment with Proscillaridin A” value in the data set on A549 and H1975 cells [1] (Ca^2+ chelator co-treatment, flow cytometry) is on record as “significant decrease of apoptotic cells”.

In the case of `c1cc(-c2cnn3cc(-c4ccc(OCCN5CCCCC5)cc4)cnc23)ccn1` [Compound C], the “apoptotic cells after co-treatment with Proscillaridin A” value in the data set on A549 and H1975 cells [1] (AMPK inhibitor co-treatment, A549 and H1975) is given as “partially weakened the apoptotic cells”.

Consider Proscillaridin A, for which the “cellular Ca^2+ level” value in the data set with A549 and H1975 cells [2] is “remarkably increases the in vitro Ca^2+ level”. Also, in the data set with AMPK phosphorylation, the “phosphorylation of AMPK” value is listed as “significantly induced the phosphorylation of AMPK”. The “phosphorylation of ACC” value in data set [3] is listed as “significantly induced the phosphorylation”. Also, in the data set with mTOR phosphorylation, the “phosphorylation of mTOR” value is on record as “inhibited the phosphorylation of mTOR”. The “phosphorylation of JNK” value in the data set on JNK phosphorylation was “significantly activated the phosphorylation of JNK”. Also, in the data set on NF-κB pathway, the NF-κB pathway activation entry was “significantly inhibited”. Moreover, the DR4 gene expression entry in the data set with DR4 expression is listed as “significantly elevated”. Further, the CC50 in the data set on H2228 cells is 0.0236 ± 0.0054 µM; in data set [4] (CCD19-LU normal fibroblast cell, 24 h), more than 0.4 µM; in the data set on A549 cells [5] it was 0.014 ± 0.0028 µM; in the data set on HCC78 cells, 0.0376 ± 0.0099 µM; in the data set with H1975 cells [6], 0.015 ± 0.0036 µM; in the data set on H358 cells, 0.0258 ± 0.0049 µM. Moreover, the CC50 in the data set with HCC827 cells [7] turned out to be 0.0139 ± 0.0018 µM. In data set [4] (CCD19-LU, 30-folds higher concentrations of the CC50 in EGFR-dependent NSCLC cells), the “inhibition of cell proliferation in normal lung fibroblast cells” value is given as “no significant inhibitory effect”. Further, the apoptotic cells result with A549 cells [8] (A549, 50 nM, 24 h) was “about 70%”; in the data set with H1975 cells [9] (H1975, 50 nM, 24 h) it was “about 70%”. For the same compound, the “concentration at which significant induction of apoptosis starts” value is 12.5 nM in the data set with A549 cells [8] (A549, 24 h) and 25 nM in the data set with H1975 cells [9] (H1975, 24 h). For the same compound, the increase of apoptosis entry in the data set on HCC827 cells [10] is listed as “about 10%”. Further, in data set [11], the “clonogenic growth (colony formation)” value is given as “can suppress clonogenic growth”. The compound also came in with an IC50 on Na^+/K^+ ATPase of 0.00083 ± 0.0003 µM. For the same compound, the AKT activation entry in data set [12] is “inhibited”. In addition, the BAX level result in [12] is reported as “up-regulated”. In data set [12], the Bcl-2 level entry is “down-regulated”. For the same compound, the “PARP, Caspase-7 and Caspase-9 cleavage” value in data set [12] was “cleaved and activated”. Also, the “EGFR activation (phosphorylation of tyrosine residue 1173)” value in data set [13] and in data set [14] was “inhibited the EGFR activation” each time.

Values taken from patent publication US20180348222A1, “BUFADIENOLIDE FOR TREATMENT OF NON-SMALL CELL LUNG CANCER” (priority 2017, published 2018).
